In patent US20110190379A1 (priority 2008, published 2011):
Several values for one entry are separate records, joined by “and”; a condition that tells them apart may be missing. Equal entries are not always repeated. Where two headings read alike, the source gives them in different places.

Columns and labels:
[1] = tested on: wheat leaves; settings: in vivo
[2] = tested on: Arabidopsis seed germination; format: in vivo
[3] = tested on: F. graminearum; format: in vivo
[4] = tested on: F. graminearum; format: in vivo; remark: listed apart in the source
[5] = tested on: F. graminearum; settings: in vivo
[6] = tested on: F. graminearum; settings: in vivo; remark: listed apart in the source

Compound: CC1=C[C@H]2O[C@@H]3[C@H](O)C[C@](C)([C@@]2(CO)[C@H](O)C1=O)[C@]31CO1 [DON, deoxynivalenol]
- cell death about the inoculation point (trypan blue) [1]: extensive cell death
- size of lesions (DON-induced cell death) [1]: 0.127 cm^2 and 0.066 cm^2
- effect on seed germination ([2]; FIG. 6): inhibits seed germination

Compound: C=C1C[C@]23C[C@@]1(O)CC[C@H]2[C@@]12C=C[C@H](O)[C@@](C)(C(=O)O1)[C@H]2[C@@H]3C(=O)O [GA, Gibberellic Acid]
- effect on DON inhibition of seed germination ([2]; FIG. 7): can reverse the inhibitory effect of DON

Compound: C=C [ethylene]
- lesion size ([3]; wheat (Hobbit 'sib') leaves, ethephon 50 mM or silver thiosulphate 150 μm in agar): did not markedly alter
- conidial production ([3]; wheat leaves, 7 days, ET P=0.05, reduced ET perception (silver) P=0.003): significantly greater
- lesion size ([4]; barley (Golden promise) leaves, ethephon 50 mM or silver thiosulphate 150 μm in agar): did not markedly alter
- conidial production ([4]; barley leaves, 7 days, ET P=0.005, reduced ET perception (silver) P=0.043): significantly greater
- conidial production [5]: enhanced susceptibility
- disease severity [5]: enhanced susceptibility

Compound: silver ions
- conidial production ([3]; in vivo): significantly reduced
- lesion size ([3]; in vivo): did not markedly alter
- conidial production ([4]; in vivo): significantly reduced
- lesion size ([4]; in vivo): did not markedly alter
- AUDPC versus water treated heads [6]: significantly lower
- disease development reduced versus water [6]: 12-88%

Compound: silver thiosulphate
- conidial production [5]: enhanced resistance
- disease severity [5]: enhanced resistance
